Data published in publication PMC10952535, “The differential binding and biological efficacy of auxin herbicides” (Pest Management Science, 2022).
Read-outs that look alike come from different tables or passages of the source.

Columns and labels:
[1] = system: Arabidopsis thaliana afb5‐1 mutant line; assay type: in vivo; details: for GR50 (DW % of NT): dry weight at 14 DAT; for Resistance ratio (afb5‐1 vs WT), DW: ratio of dry weight GR50 values; for Resistance ratio (afb5‐1 vs WT), DW / Resistance ratio (afb5‐1 vs WT), visual injury: foliar application; for Resistance ratio (afb5‐1 vs WT), visual injury: ratio of visual injury GR50 values
Method: (§1) Bioassays were carried out with the model species Arabidopsis thaliana. The wild type (WT) Col‐0 line was compared to an afb5‐1 mutant line in a Col‐0 background containing a missense mutation of R609K.[11] A. thaliana seeds were sown on Metro‐mix 360 potting mix (Sungro Horticulture) supplemented with vermiculite and stratified for 3 days at 4 °C in the dark. Flats were moved to a growth chamber (as above) and a plastic lid was placed on the flat. On germination, the lid was removed. After 2 weeks in the growth chamber, seedlings were transplanted into 3‐in. pots with Metro‐mix 360 potting mix and moved to a greenhouse. The greenhouse was maintained at a day/night temperature of 23/22 °C and supplemented with light to complete a 16 h photoperiod. Plants were allowed to recover from transplanting for 1 week prior to applications. A. thaliana seedlings were sprayed with test compounds at five rates with four replications. Tests included nontreated and solvent check controls. Individual compound doses varied and were based on plate test data or anecdotal potency. Compounds were formulated as technical material and were initially dissolved in 1 part 97:3 (v/v) acetone: dimethylsufoxide (DMSO) followed by 5 parts 1.5% (v/v) Agridex crop oil concentrate in distilled water to give a final concentration of 1.25% (v/v) Agridex. Formulated compounds were sprayed at a volume of 187 L ha^−1 at a spray height of 43 cm above the plants with an overhead Mandel track sprayer set with 8002 E Tee jet nozzle. Plants were treated at rosette stage just prior to or at initiation of bolting. After spray application, plants were allowed to dry then moved back to the greenhouse. Plants were grown in the greenhouse (same conditions as above) for 2 weeks until harvest. Visual injury/growth reduction observations were made at 7 and 14 days after treatment (DAT) and scored where 0% = no growth reduction and 100% = complete growth reduction or plant death. At 14 DAT the plants were harvested and dried to collect dry weight (DW) biomass.
(§2) The data collected in the foliar application of compounds generated a measure of sensitivity or dose response. The data was analyzed by regression in JMP 10.0 and fit to a nonlinear exponential three parameter fit model:
(§3) where a is the asymptote, b is the scale and c is the rate of growth. The model was used to determine the herbicidal dose that caused 50% reduction in growth (GR50). GR50 values were compared between mutant and WT to give an indication of fold resistance over WT (Table 3). A log‐logistic model[24] was also used to fit the data and gave similar GR50 values with greater standard errors without changing the pattern of responsiveness.

AtAFB2 [2] = target: T1, AtAFB2 (Arabidopsis thaliana, UniProt Q9LW29); assay: SPR single cycle kinetics, AtAFB2; assay type: binding
T1 construct: His10 (N, cleaved yes); eGFP (N, cleaved yes); FLAG (N, cleaved yes); made in house; host or cells: baculovirus; Trichoplusia ni Hi5 cells (virus generated in Sf9)
T1 sequence (Q9LW29 whole entry, other chains not shown): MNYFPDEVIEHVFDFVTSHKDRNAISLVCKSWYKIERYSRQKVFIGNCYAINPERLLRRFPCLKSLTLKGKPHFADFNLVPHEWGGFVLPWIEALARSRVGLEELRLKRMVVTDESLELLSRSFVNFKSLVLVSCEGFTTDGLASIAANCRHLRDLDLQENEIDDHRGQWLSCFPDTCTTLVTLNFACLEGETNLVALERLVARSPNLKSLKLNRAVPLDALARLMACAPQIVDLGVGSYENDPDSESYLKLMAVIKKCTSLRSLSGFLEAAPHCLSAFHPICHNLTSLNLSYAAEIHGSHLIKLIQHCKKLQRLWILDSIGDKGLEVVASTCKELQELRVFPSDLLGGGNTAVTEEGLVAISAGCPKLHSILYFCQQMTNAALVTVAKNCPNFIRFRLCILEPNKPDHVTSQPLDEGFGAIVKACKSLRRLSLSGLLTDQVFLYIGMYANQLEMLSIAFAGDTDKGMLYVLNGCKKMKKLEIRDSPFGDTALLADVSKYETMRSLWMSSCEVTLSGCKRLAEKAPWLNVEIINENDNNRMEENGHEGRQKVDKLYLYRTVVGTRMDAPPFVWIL
T1 sequence (Q39255 whole entry partner, other chains not shown): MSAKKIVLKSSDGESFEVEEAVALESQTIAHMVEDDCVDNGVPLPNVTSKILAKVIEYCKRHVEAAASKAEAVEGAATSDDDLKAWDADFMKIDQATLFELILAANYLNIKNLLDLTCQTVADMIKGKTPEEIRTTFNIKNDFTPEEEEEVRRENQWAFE
Method: (§4) Auxin binding assays using surface plasmon resonance (SPR) were performed on a Biacore 2000 as described previously.[3], [18], [23] Protein was stored on ice and protein concentrations were assayed by A280 nm measurement (nanodrop, Thermo Scientific). Briefly, AtAux/IAA7 degron peptide was immobilized on streptavidin‐coated SPR chips, and binding was measured in the presence of IAA or auxin analogue by recruitment of the TIR1/AFB protein from solution as the co‐receptor complex formed on the chip. Kinetic analyses were performed by single cycle kinetics on a Biacore T200 (Cytiva Life Sciences), titrating compounds against a fixed concentration of TIR1 before injection. The degron peptide density on the chips was controlled so that R max < 300 Response UNits (RU).

AtTIR1 [3] = target: T2, AtTIR1 (Arabidopsis thaliana, UniProt Q570C0); assay: biochemical; assay type: binding
T2 construct: His10 (N, cleaved yes); eGFP (N, cleaved yes); FLAG (N, cleaved yes); made in house; host or cells: baculovirus; Trichoplusia ni Hi5 cells (virus generated in Sf9)
T2 sequence (Q570C0 whole entry, other chains not shown): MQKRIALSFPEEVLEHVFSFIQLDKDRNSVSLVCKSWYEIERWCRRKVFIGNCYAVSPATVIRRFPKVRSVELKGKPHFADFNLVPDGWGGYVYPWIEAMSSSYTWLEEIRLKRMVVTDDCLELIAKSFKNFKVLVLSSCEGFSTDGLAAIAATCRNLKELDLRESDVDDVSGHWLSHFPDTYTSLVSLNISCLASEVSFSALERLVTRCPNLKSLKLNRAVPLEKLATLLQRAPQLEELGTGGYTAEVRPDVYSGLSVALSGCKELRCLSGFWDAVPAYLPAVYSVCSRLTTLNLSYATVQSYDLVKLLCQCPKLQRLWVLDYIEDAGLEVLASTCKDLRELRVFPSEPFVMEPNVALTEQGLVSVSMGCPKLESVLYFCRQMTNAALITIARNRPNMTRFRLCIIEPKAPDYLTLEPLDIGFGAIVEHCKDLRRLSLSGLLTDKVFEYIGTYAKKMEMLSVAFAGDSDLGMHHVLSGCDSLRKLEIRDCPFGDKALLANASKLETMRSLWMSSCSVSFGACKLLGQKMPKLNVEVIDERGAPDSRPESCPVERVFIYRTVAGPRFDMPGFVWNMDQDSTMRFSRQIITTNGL
T2 sequence (Q39255 whole entry partner, other chains not shown): as the sequence (Q39255 whole entry partner, other chains not shown) above
Method: as §4

AtAFB5 [4] = target: T3, AtAFB5 (Arabidopsis thaliana, UniProt Q9LTX2); assay: biochemical; assay type: binding
T3 construct: His10 (N, cleaved yes); eGFP (N, cleaved yes); FLAG (N, cleaved yes); made in house; host or cells: baculovirus; Trichoplusia ni Hi5 cells (virus generated in Sf9)
T3 sequence (Q9LTX2 whole entry, other chains not shown): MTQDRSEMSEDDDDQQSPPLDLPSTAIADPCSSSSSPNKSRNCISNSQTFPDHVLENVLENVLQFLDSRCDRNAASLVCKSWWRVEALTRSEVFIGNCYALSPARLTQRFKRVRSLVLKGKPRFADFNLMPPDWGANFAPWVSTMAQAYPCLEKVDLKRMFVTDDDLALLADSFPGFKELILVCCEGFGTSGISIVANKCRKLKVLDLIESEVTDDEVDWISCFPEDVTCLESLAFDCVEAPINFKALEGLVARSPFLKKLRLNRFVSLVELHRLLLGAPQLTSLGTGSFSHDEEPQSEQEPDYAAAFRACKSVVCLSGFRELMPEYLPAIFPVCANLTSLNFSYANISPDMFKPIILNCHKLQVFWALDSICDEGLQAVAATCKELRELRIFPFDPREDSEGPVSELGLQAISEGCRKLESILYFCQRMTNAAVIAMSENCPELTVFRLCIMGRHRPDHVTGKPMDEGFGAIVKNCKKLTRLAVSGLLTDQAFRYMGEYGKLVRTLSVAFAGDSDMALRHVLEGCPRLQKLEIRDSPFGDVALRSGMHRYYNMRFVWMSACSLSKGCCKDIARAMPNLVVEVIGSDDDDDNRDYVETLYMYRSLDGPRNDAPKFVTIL
T3 sequence (Q39255 whole entry partner, other chains not shown): as the sequence (Q39255 whole entry partner, other chains not shown) above
Method: as §4

[5] = system: Arabidopsis thaliana wild type (WT) Col‐0; assay: Foliar efficacy bioassay, wild type; assay type: in vivo; details: foliar application; for GR50 (DW % of NT): dry weight at 14 DAT
Method: as §1, §2, §3

[6] = system: Arabidopsis thaliana afb5‐1 seedlings; assay: Root growth inhibition bioassay, afb5‐1 mutant; assay type: in vivo; details: afb5‐1 vs WT dose-response, 8 days
Method: (§5) A. thaliana seed was surface sterilized in 10 mL of 50% bleach and two drops of Tween‐20 for 12 min and rinsed six times with sterile water. Sterile growth media consisted of half‐strength Murashige and Skoog salts supplemented with 0.4% agar and 0.8% sucrose. In a laminar flow hood, 8 mL of liquid media was transferred to sterile test‐tubes placed in a heat block to maintain media in a liquid state. Compounds were previously diluted in 50/50 DMSO/water to a known molar concentration. A 50‐μL aliquot of diluted compound was added to each tube to give a specified final concentration, normally 10, 1, 0.1, 0.01 or 0.001 μM. A single tube was treated with solvent only as a control. Test compounds were mixed into the media by pipetting up and down three times, then 6 mL of media with test compound was added to one well in a six‐well plate, working from low‐to‐high concentration, and allowed to solidify in the laminar flow hood. Approximately 15 sterilized seeds were placed on the solidified surface and the remaining 2 mL of liquid media was added to cover and disperse seeds. Plates were sealed with paraffin and moved to a Conviron growth chamber set to 60% humidity, 25 °C and light intensity 100 μE m^2 s^−1 with a 16 h photoperiod. After 8 days primary root measurements of five random plants were taken by removing plants from media and measuring with a ruler. Treatments were compared against the solvent control to determine percentage root growth inhibition. Each experiment was run twice and averages were combined for analysis.

AtTIR1 [7] = target: T2, AtTIR1; assay: SPR relative binding (co-receptor complex formation with Aux/IAA7 degron), AtTIR1; details: 50 μM compound; for % of IAA binding: normalized to IAA = 100%
Method: as §4

AtAFB5 [8] = target: T3, AtAFB5; assay: SPR relative binding (co-receptor complex formation with Aux/IAA7 degron), AtAFB5; details: 50 μM compound; for % of IAA binding: normalized to IAA = 100%
Method: as §4

AtAFB2 [9] = target: T1, AtAFB2; assay: SPR relative binding (co-receptor complex formation with Aux/IAA7 degron), AtAFB2; details: 50 μM compound; for % of IAA binding: normalized to IAA = 100%
Method: as §4

[10] = system: Arabidopsis thaliana Col‐0 seedlings; assay: Root growth inhibition bioassay, wild type; assay type: in vivo; details: 8 days, up to 10 μM
Method: as §5, with “Treatments were compared against the solvent control to determine percentage root growth inhibition. Each experiment was run twice and averages were combined for analysis.” left out

[11] = averaged equilibrium dissociation constant, SPR single cycle kinetics, read-out: Ave KD

| Compound | GR50 (DW % of NT) ([1]; afb5‐1, foliar application) [g ai ha^−1] | GR50 (visual injury) ([1]; afb5‐1, foliar application) [g ai ha^−1] | Resistance ratio (afb5‐1 vs WT), DW [1] | Resistance ratio (afb5‐1 vs WT), visual injury [1] | Kd (AtAFB2 [2]; [11]) [µM] | Kd (AtTIR1 [3]; [11]) [µM] | Kd (AtAFB5 [4]; [11]) [µM] | GR50 (DW % of NT) [5] [g ai ha^−1] | GR50 (visual injury) [5] [g ai ha^−1] | Resistance of afb5‐1 in root growth inhibition (in words) [6] | % of IAA binding (AtTIR1 [7]) [%] | % of IAA binding (AtAFB5 [8]) [%] | Kd (AtTIR1 [3]) [µM] | Kd (AtAFB5 [4]) [µM] | % of IAA binding (AtAFB2 [9]) [%] | Primary root growth inhibition (in words) [10] | other results |
| --- | --- | --- | --- | --- | --- | --- | --- | --- | --- | --- | --- | --- | --- | --- | --- | --- | --- |
| COc1c(Cl)ccc(-c2nc(C(=O)O)c(Cl)c(N)c2F)c1F [Florpyrauxifen] | 1 | 5.2 | 10 | 7.4 | 105 | 62 | 2.7 | 0.1 | 0.7 | considerable resistance |  |  |  |  |  |  |  |
| O=C(O)COc1ccc(Cl)cc1Cl [2,4‐D, 2,4‐dichlorophenoxyacetic acid] | 9.9 | 40.5 | 2.5 | 2.1 |  |  |  | 3.9 | 19.2 | No resistance | 29 | 40 | 229 | 152 | 22 |  | Kd (AtAFB2 [2]): 392 µM |
| Nc1c(Cl)c(Cl)nc(C(=O)O)c1Cl [Picloram] | 996 |  | 72.7 |  |  |  |  | 13.7 | 202 | considerable resistance |  |  | 319 | 107 |  | low level of phytotoxicity | Relative binding (in words) (AtTIR1 [7]; compared to IAA): relatively low binding; Relative binding (in words) (AtAFB5 [8]; compared to IAA): relatively low binding; Relative binding (in words) (AtAFB2 [9]; compared to IAA): relatively low binding |
| COc1c(Cl)ccc(-c2cc(N)c(Cl)c(C(=O)O)n2)c1F [Halauxifen] | 0.6 | 2.4 | 7.5 | 6 | 333 | 128 | 2.4 | 0.08 | 0.4 | considerable resistance | 10 | 170 |  |  | < 5 |  |  |
| O=C(O)c1c(Cl)ccc2cc(Cl)cnc12 [Quinclorac] | 1002 |  | 1 |  |  |  |  | 1015 |  | No resistance | < 5 | < 5 |  |  | < 5 | very low root growth inhibition | Foliar phytotoxicity / resistance (in words) ([1]; afb5‐1, foliar application): did not provide much phytotoxicity; Foliar phytotoxicity (in words) [5]: did not provide much phytotoxicity |
